Experimental data: patent EP0291164A2, “Growth-suppressing infusion medium, growth-suppressing cell culture medium and processes for the suppression of transformed cell growth” (SPECTRAL BIOANALYSIS LTD., priority 1987, dated 1988)

Experiments:
HTB-38 = assay: Cell growth by Lowry protein determination after 80 hours in zinc-supplemented culture medium; assay type: cell-based, human; conditions: for decrease in protein yield: compared to Cell Culture Medium No. 1, 4800 min
Text: (§1) In the example, malignant transformed human cell lines obtained from the American Type Culture Collection, i.e., a human epithelial cervix carcinoma cell line, HeLa (ATCC No. CCL-2), a human adenocarcinoma carcinoma cell line of the colon, HT-29 (ATCC No. HTB-38) and a human adenocarcinoma carcinoma cell line of the breast, SK-BR-3 (ATCC No. HTB-30) were used. Non-transformed dipolid human fibroblast cells (MRC-5, ATCC No. CCL-171) were employed as a control. The cell lines were obtained from the American Type Culture Collection in a frozen condition. In order to reactivate the cells, the cells were subcultured in McCoy 5A (mod.) medium (Serva Company) containing 15% (v/v) fetal calf serum.
(§2) The reactivated cells were allowed to reach the logarithmic growth phase and then detrypsinized and harvested. The harvested cells were washed twice with McCoy 5A (mod.) medium containing 15% (v/v) fetal calf serum and then resuspended in the same medium at a concentration of 10⁶ cells per ml. The correct cell concentration was determined using a Neubeuer-Turk count chamber in which the viability of the cells was also determined by means of Trypan blue coloring (see: Freshney, I.R., Culture of Animal Cells, Alan Riss Publ. Co., New York, N.Y. (1983)).
(§3) To tubes containing 200,000 HTB-30 cells or 200,000 HTB-38 cells or 200,000 CCL-2 cells was added Cell Culture Medium Nos. 1, 2, 3, 4, 5, 6, 7, 8 or 9 described below and the cells were incubated for 80 hours. In addition, to tubes containing 200,000 human fibroblast cells (MRC-5) were added Cell Culture Medium Nos. 1, 2, 3, 4, 5, 6, 7, 8 or 9 described below and the cells were incubated for 80 hours. All of the cells were incubated at 36.5°C (± 0.5°C), 5% CO₂ and 95% air. Five duplicate tubes were employed for each cell culture medium for each cell.
(§4) After the end of the incubation time, the culture medium was removed and the cells were washed three times with Dulbecco buffer solution (see: Dulbecco, R.U., Vogt, M., J. Exp. Med. 98:167-182 (1954)). Next, the cells were dried and octyl phenol polyethylene glycol ether was added at a concentration of 0.2% (v/v) to each tube to which 20 µl of 1.0 N NaOH had been additionally added per ml.
(§5) After thorough mixing and allowing the samples to stand for 30 minutes at 20-25°C, 200 µl each of the resulting cell extracts were used for protein determinations according to the Lowry method (see: Lowry, O.H. et al., J. Biol. Chem. 193:265 (1951)).
(§6) The Control in the Table below refers to Cell Culture Medium No. 1 at 4°C to which no cells had been added. […] All growth values are mean values from the five duplicate tubes ± the standard deviation.
(§7) The growth value as a percent of the Control was determined according to the following formula: [formula]
(§8) In addition, in the Table, the mean adsorption values are determinative of the concentration of protein in the cells and were evaluated at 660 nm.

CCL-2 = assay: as above; assay type: cell-based, human; conditions: CCL-2, about 1.6 mg/l to about 4.0 mg/l of Zn⁺⁺
Text: as §1, §2, §3, §4, §5, §6, §7, §8

HTB-30 = assay: as above; assay type: cell-based, human; conditions: HTB-30, about 1.6 mg/l to about 4.0 mg/l of Zn⁺⁺
Text: as §1, §2, §3, §4, §5, §6, §7, §8

Human Fibroblasts = assay: Cell growth by Lowry protein determination after 80 hours in zinc-supplemented culture medium (non-transformed control cells); assay type: cell-based; conditions: about 1.6 mg/l to about 4.0 mg/l of Zn⁺⁺
Text: as §1
The reactivated cells were allowed to reach the logarithmic growth phase and then detrypsinized and harvested. […] The correct cell concentration was determined using a Neubeuer-Turk count chamber in which the viability of the cells was also determined by means of Trypan blue coloring (see: Freshney, I.R., Culture of Animal Cells, Alan Riss Publ. Co., New York, N.Y. (1983)). […]
as §7, §8

SMILES: [Cl-].[Cl-].[Zn+2] [bivalent zinc, ZnCl₂]
- decrease in protein yield (HTB-38; HTB-38, 3.5 mg/l of Zn⁺⁺ (maximum growth suppression)): 41.8%
- growth rate, expressed as protein concentration (HTB-38; HTB-38, about 1.6 mg/l to about 4.0 mg/l of Zn⁺⁺): inhibited
- decrease in protein yield (HTB-38; HTB-38, about 2.1 mg/l of Zn⁺⁺): 24.8%
- growth rate, expressed as protein concentration (CCL-2): inhibited
- growth rate, expressed as protein concentration (HTB-30): inhibited
- growth rate, expressed as protein concentration (Human Fibroblasts): not inhibited
